# Laboratory results from patent US20130059903A1, “Compositions and Methods for Characterizing Breast Cancer” (THE JOHNS HOPKINS UNIVERSITY, priority 2010, published 2013).
# What was measured:
# Assay type in all cases: cell-based
# ER = ER re-expression after methylation inhibitor / HDAC inhibitor treatment (qRT-PCR, immunoblot); conditions: MCF-7/Twist cells; 1 μM AZA, 10 μM VPA, three days; qRT-PCR and immunoblotting
# Protocol: Cells were treated with 1 μM AZA for three days and DNA processed for demethylation studies by methylation specific quantitative PCR (MS-qPCR). Total proteins were extracted and immunoblotted to analyze the effect of demethylation on ER expression. Cells were treated with HDAC inhibitor VPA at 10 μM concentration for three days and processed similarly.
# MCF-7 cells [1] = assay: Dye efflux assays
# Protocol: (§1) Semiconfluent cells were washed once with HBSS and resuspended in growth medium at 1×10^6 cells/ml and 5 μg/ml Hoechst 33342 (Sigma-Aldrich, St. Louis, Mo.) and incubated for 45 minutes at 37° C. in a constant-temperature water bath. Subsequently, the cells were washed once in cold HBSS/2% BSA and resuspended in warm medium and incubated for 45 minutes at 37° C. for efflux. Cells were centrifuged and mounted on a slide before photomicroscopy.
# (§2) For Rhodamine 123 (Sigma-Aldrich) staining, cells were trypsinized and washed twice in PBS/1% FCS. One million cells were resuspended in 100 μl of PBS/1% FCS and stained with 100 to 500 ng/ml Rhodamine 123 for 15 to 30 minutes at 37° C. Cells were washed twice at room temperature, resuspended, and incubated without Rhodamine 123 for 15 to 30 minutes at 37° C. to allow for efflux to occur. Rhodamine efflux was subsequently determined by flow cytometry on a FACScan II flow cytometer.
# MCF-7/Twist cells [2] = assay: Dye efflux assays
# Protocol: as §1, §2
# MCF-7 cells [3] = assay: Cell cycle analysis by flow cytometry after anti-estrogen treatment; conditions: 1 μM 4-hydroxytamoxifen or 1 nM fulvestrant in PRF-MEM/5% CSS, three days
# Protocol: (§3) Cell lines were obtained from ATCC (Manassas, Va.) and maintained as instructed. Construction of MCF-7/Twist and MCF 10A/Twist cell lines have been described earlier (19, 23). For transient expression, cells were transfected using either retroviral constructs (generated in-house) or lentiviral constructs (Open Biosystems, Huntsville, Ala.). For hormone studies, cells were grown for two days in phenol-red free minimal essential media (PRF-MEM) containing 5% charcoal stripped serum (CSS). For anti-estrogen treatment, PRFMEM/5% CSS media was supplemented with 1 μM 4-hydroxytamoxifen (tamoxifen) or 1 nM fulvestrant. Three days following treatment, the cells were fixed in 70% ethanol and cell cycle analysis performed on a FacScan I (BD Biosciences, San Jose, Calif.). Independent experiments were repeated four times. Data was analyzed using FlowJo (Tree Star Inc., Ashland, Oreg.) and ModFit LT 2.0 software (Verity House Software, Topsham, Me.).
# MCF-7/Twist cells [4] = assay: as above; conditions: 1 μM 4-hydroxytamoxifen or 1 nM fulvestrant in PRF-MEM/5% CSS, three days
# Protocol: as §3
# [5] = 5 μg/ml Hoechst 33342, 45 minutes efflux, microscopy
compound,measurement,setting,value
"Nc1ncn([C@H]2C[C@H](O)[C@@H](CO)O2)c(=O)n1 [AZA, 5-aza 2′-deoxycytidine]",ER expression (transcript and protein levels),ER,significant increase
CCOc1ccc(-c2nc3ccc(-c4nc5ccc(N6CCN(C)CC6)cc5[nH]4)cc3[nH]2)cc1 [Hoechst 33342],relative fluorescence intensity per cell (dye retained after efflux),MCF-7 cells [1]; [5],65
same,relative fluorescence intensity per cell (dye retained after efflux),MCF-7/Twist cells [2]; [5],57
"CCCC(CCC)C(=O)O [VPA, valproic acid]",ER expression (transcript and protein levels),ER,significant increase
C[C@]12CC[C@@H]3c4ccc(O)cc4C[C@@H](CCCCCCCCC[S+]([O-])CCCC(F)(F)C(F)(F)F)[C@H]3[C@@H]1CC[C@@H]2O (stereo partly drawn) [fulvestrant],G1 (percentage of cells in cell cycle phase),MCF-7 cells [3],86%
same,G2/M (percentage of cells in cell cycle phase),MCF-7 cells [3],5.8%
same,S (percentage of cells in cell cycle phase),MCF-7 cells [3],3.9%
same,G1 (percentage of cells in cell cycle phase),MCF-7/Twist cells [4],67.7%
same,G2/M (percentage of cells in cell cycle phase),MCF-7/Twist cells [4],13.3%
same,S (percentage of cells in cell cycle phase),MCF-7/Twist cells [4],16.6%
Rhodamine 123,mean fluorescence intensity (dye retained after efflux),"MCF-7 cells [1]; Rhodamine 123, flow cytometry",205
same,mean fluorescence intensity (dye retained after efflux),"MCF-7/Twist cells [2]; Rhodamine 123, flow cytometry",96
